How the values were obtained:
AML cell lines = conditions: cited from earlier work
relapsed/refractory AML = assay: AML study: antileukaemic activity (IWG response criteria); assay type: in vivo, human
Text: The antileukaemic activity in AML was according to the International Working Group (IWG) response criteria for AML.[17] Response criteria were modified such that an M-1 marrow was defined as 1% to ≤5% and a partial response as >5% to 25%.[18]

advanced solid tumours = assay: Solid tumour study: tumour response (RECIST v.1.1); assay type: in vivo, human; conditions: for Best response: CR / Best response: Death / Best response: Not evaluable / Best response: Partial response / Best response: Progression / Best response: Stable disease ≥6 weeks: RECIST criteria
Experimental: In the solid tumour study, responses were evaluated using RECIST v.1.1. Contrast-enhanced CTs of the chest, abdomen, pelvis and neck were performed at screening (≤28 days before the start of study treatment), every 6 weeks (±1 week) up to 12 weeks, and then every 12 weeks (±1 week) until discontinuation of study treatment or withdrawal of consent, starting from Day 1 of Cycle 1.

AML blasts = assay: RPPA protein profiling in AML blasts during therapy; assay type: in vivo, human; conditions: samples from six patients
Experimental: In the AML study, a protein profiling analysis was carried out on primary blasts obtained from peripheral blood of patients (n = 6) before and during therapy with AZD1208. Due to time-sensitive aspects of the analysis, only patients from the MD Anderson Cancer Center (MDACC, Houston, TX, USA) were eligible. Whole blood was collected in heparinised tubes. Leukaemia cells were then isolated using Ficoll–Hypaque (specific gravity, 1.086; Life Technologies, Grand Island, NY, USA) density gradient separation, as previously described.[15] Cell number and mean cell volume were determined using a Coulter Channelyzer (Coulter Electronics, Hialeah, FL, USA).
AML blasts isolated from patients during therapy with AZD1208 were harvested and submitted for reverse phase protein array (RPPA) analysis to evaluate protein level changes across a set of 171 antibodies,[16] graphed using GraphPad Prism software (GraphPad Software, Inc., San Diego, CA, USA).

[1] = test system: patients with AML or advanced solid tumours; assay: Both dose-escalation studies pooled: adverse events; assay type: in vivo, human
Experimental: Safety and tolerability were assessed from the time of informed consent until the end of follow-up (defined as 30 and 28 days after study treatment was discontinued for the AML and solid tumour studies, respectively) by evaluation of adverse events (AEs), vital signs, ECGs and laboratory assessments. The CTCAE (version 4.0) was utilised to grade all AE events.
AEs were summarised by Medical Dictionary for Regulatory Activities (MedDRA) system organ class, MedDRA preferred term and CTCAE grade. Summary statistics of mean, median, standard deviation, minimum, maximum and number of observations were used.

[2] = Investigator assessed, 120 mg, n=4
[3] = Investigator assessed, 240 mg, n=6
[4] = Investigator assessed, 480 mg, n=6
[5] = Investigator assessed, 700 mg, n=7
[6] = Investigator assessed, 900 mg, n=9
[7] = Modified Cheson criteria, 120 mg, n=4
[8] = Modified Cheson criteria, 240 mg, n=6
[9] = Modified Cheson criteria, 480 mg, n=6
[10] = Modified Cheson criteria, 700 mg, n=7
[11] = Modified Cheson criteria, 900 mg, n=9

N[C@@H]1CCCN(c2c(/C=C3\SC(=O)NC3=O)cccc2-c2ccccc2)C1 [AZD1208]
Effect on cell cycle and apoptosis (AML cell lines): induced cell cycle arrest and apoptosis
Discontinued study treatment due to a lack of therapeutic response, patients (relapsed/refractory AML; 32 eligible patients): 59.4%
Best response: CR (relapsed/refractory AML; [2]): 0 n (%)
Best response: CRi (relapsed/refractory AML; [2]): 0 n (%)
Best response: Morphologic leukaemia free (relapsed/refractory AML; [2]): 0 n (%)
Best response: Non-response (relapsed/refractory AML; [2]): 3 (75.0) n (%)
Best response: Partial remission (relapsed/refractory AML; [2]): 0 n (%)
Best response: CR (relapsed/refractory AML; [3]): 0 n (%)
Best response: CRi (relapsed/refractory AML; [3]): 0 n (%)
Best response: Morphologic leukaemia free (relapsed/refractory AML; [3]): 0 n (%)
Best response: Non-response (relapsed/refractory AML; [3]): 3 (50.0) n (%)
Best response: Partial remission (relapsed/refractory AML; [3]): 0 n (%)
Best response: CR (relapsed/refractory AML; [4]): 0 n (%)
Best response: CRi (relapsed/refractory AML; [4]): 0 n (%)
Best response: Morphologic leukaemia free (relapsed/refractory AML; [4]): 0 n (%)
Best response: Non-response (relapsed/refractory AML; [4]): 3 (50.0) n (%)
Best response: Partial remission (relapsed/refractory AML; [4]): 0 n (%)
Best response: CR (relapsed/refractory AML; [5]): 0 n (%)
Best response: CRi (relapsed/refractory AML; [5]): 0 n (%)
Best response: Morphologic leukaemia free (relapsed/refractory AML; [5]): 0 n (%)
Best response: Non-response (relapsed/refractory AML; [5]): 1 (14.3) n (%)
Best response: Partial remission (relapsed/refractory AML; [5]): 0 n (%)
Best response: CR (relapsed/refractory AML; [6]): 0 n (%)
Best response: CRi (relapsed/refractory AML; [6]): 0 n (%)
Best response: Morphologic leukaemia free (relapsed/refractory AML; [6]): 0 n (%)
Best response: Non-response (relapsed/refractory AML; [6]): 2 (22.2) n (%)
Best response: Partial remission (relapsed/refractory AML; [6]): 0 n (%)
Best response: CR (relapsed/refractory AML; [7]): 0 n (%)
Best response: CRi (relapsed/refractory AML; [7]): 0 n (%)
Best response: Morphologic leukaemia free (relapsed/refractory AML; [7]): 0 n (%)
Best response: Non-response (relapsed/refractory AML; [7]): 4 (100) n (%)
Best response: Partial remission (relapsed/refractory AML; [7]): 0 n (%)
Best response: CR (relapsed/refractory AML; [8]): 0 n (%)
Best response: CRi (relapsed/refractory AML; [8]): 0 n (%)
Best response: Morphologic leukaemia free (relapsed/refractory AML; [8]): 0 n (%)
Best response: Non-response (relapsed/refractory AML; [8]): 6 (100) n (%)
Best response: Partial remission (relapsed/refractory AML; [8]): 0 n (%)
Best response: CR (relapsed/refractory AML; [9]): 0 n (%)
Best response: CRi (relapsed/refractory AML; [9]): 0 n (%)
Best response: Morphologic leukaemia free (relapsed/refractory AML; [9]): 0 n (%)
Best response: Non-response (relapsed/refractory AML; [9]): 6 (100) n (%)
Best response: Partial remission (relapsed/refractory AML; [9]): 0 n (%)
Best response: CR (relapsed/refractory AML; [10]): 0 n (%)
Best response: CRi (relapsed/refractory AML; [10]): 0 n (%)
Best response: Morphologic leukaemia free (relapsed/refractory AML; [10]): 0 n (%)
Best response: Non-response (relapsed/refractory AML; [10]): 7 (100) n (%)
Best response: Partial remission (relapsed/refractory AML; [10]): 0 n (%)
Best response: CR (relapsed/refractory AML; [11]): 0 n (%)
Best response: CRi (relapsed/refractory AML; [11]): 0 n (%)
Best response: Morphologic leukaemia free (relapsed/refractory AML; [11]): 0 n (%)
Best response: Non-response (relapsed/refractory AML; [11]): 9 (100) n (%)
Best response: Partial remission (relapsed/refractory AML; [11]): 0 n (%)
Clinical responses according to IWG criteria (relapsed/refractory AML; all doses): no clinical responses
Discontinued study treatment due to disease progression, patients (advanced solid tumours; 35 patients): 65.7%
Best response: CR (advanced solid tumours; 120 mg, n=3): 0 n (%)
Best response: Death (advanced solid tumours; 120 mg, n=3): 0 n (%)
Best response: Not evaluable (advanced solid tumours; 120 mg, n=3): 0 n (%)
Best response: Partial response (advanced solid tumours; 120 mg, n=3): 0 n (%)
Best response: Progression (advanced solid tumours; 120 mg, n=3): 1 (33.3) n (%)
Best response: Stable disease ≥6 weeks (advanced solid tumours; 120 mg, n=3): 2 (66.7) n (%)
Best response: CR (advanced solid tumours; 240 mg, n=7): 0 n (%)
Best response: Death (advanced solid tumours; 240 mg, n=7): 0 n (%)
Best response: Not evaluable (advanced solid tumours; 240 mg, n=7): 0 n (%)
Best response: Partial response (advanced solid tumours; 240 mg, n=7): 0 n (%)
Best response: Progression (advanced solid tumours; 240 mg, n=7): 2 (28.6) n (%)
Best response: Stable disease ≥6 weeks (advanced solid tumours; 240 mg, n=7): 5 (71.4) n (%)
Best response: CR (advanced solid tumours; 360 mg, n=5): 0 n (%)
Best response: Death (advanced solid tumours; 360 mg, n=5): 0 n (%)
Best response: Not evaluable (advanced solid tumours; 360 mg, n=5): 1 (20.0) n (%)
Best response: Partial response (advanced solid tumours; 360 mg, n=5): 0 n (%)
Best response: Progression (advanced solid tumours; 360 mg, n=5): 3 (60.0) n (%)
Best response: Stable disease ≥6 weeks (advanced solid tumours; 360 mg, n=5): 1 (20.0) n (%)
Best response: CR (advanced solid tumours; 540 mg, n=7): 0 n (%)
Best response: Death (advanced solid tumours; 540 mg, n=7): 0 n (%)
Best response: Not evaluable (advanced solid tumours; 540 mg, n=7): 1 (14.3) n (%)
Best response: Partial response (advanced solid tumours; 540 mg, n=7): 0 n (%)
Best response: Progression (advanced solid tumours; 540 mg, n=7): 3 (42.9) n (%)
Best response: Stable disease ≥6 weeks (advanced solid tumours; 540 mg, n=7): 3 (42.9) n (%)
Best response: CR (advanced solid tumours; 700 mg, n=6): 0 n (%)
Best response: Death (advanced solid tumours; 700 mg, n=6): 1 (16.7) n (%)
Best response: Not evaluable (advanced solid tumours; 700 mg, n=6): 2 (33.3) n (%)
Best response: Partial response (advanced solid tumours; 700 mg, n=6): 0 n (%)
Best response: Progression (advanced solid tumours; 700 mg, n=6): 3 (50.0) n (%)
Best response: Stable disease ≥6 weeks (advanced solid tumours; 700 mg, n=6): 1 (16.7) n (%)
Best response: CR (advanced solid tumours; 800 mg, n=5): 0 n (%)
Best response: Death (advanced solid tumours; 800 mg, n=5): 0 n (%)
Best response: Not evaluable (advanced solid tumours; 800 mg, n=5): 1 (20.0) n (%)
Best response: Partial response (advanced solid tumours; 800 mg, n=5): 0 n (%)
Best response: Progression (advanced solid tumours; 800 mg, n=5): 3 (60.0) n (%)
Best response: Stable disease ≥6 weeks (advanced solid tumours; 800 mg, n=5): 1 (20.0) n (%)
Best objective response: progression (advanced solid tumours; RECIST, all doses): 14 n
Best objective response: stable disease for ≥6 weeks (advanced solid tumours; RECIST, all doses): 13 n
Objective response rate (advanced solid tumours; RECIST, all doses): 0%
Patients with stable disease at Week 12 (advanced solid tumours; five patients evaluable): four
Prostate-specific antigen (PSA) levels (advanced solid tumours; one patient with prostate cancer): considerable reduction
Patients with reductions in 4E-BP1 S65 (RPPA) (AML blasts): three
Patients with reductions in BAD S112 (RPPA) (AML blasts): four
Patients who experienced adverse events [1]: 98.5%
Patients with gastrointestinal adverse events [1]: 92.5%

Source: PMC5988656, “Phase I studies of AZD1208, a proviral integration Moloney virus kinase inhibitor in solid and haematological cancers” (British Journal of Cancer, 2018)
